In ChEMBL document CHEMBL5465560, “Selectivity Literature for EUbOPEN Chemogenomic Library” (2024) one finds % of control, % of inhibition and % binding data, which are given here for seven molecules.

The target in experiment [1] is T1, Cyclin-dependent kinase-like 5 (Homo sapiens) (UniProt O76039).
T1 sequence (whole entry): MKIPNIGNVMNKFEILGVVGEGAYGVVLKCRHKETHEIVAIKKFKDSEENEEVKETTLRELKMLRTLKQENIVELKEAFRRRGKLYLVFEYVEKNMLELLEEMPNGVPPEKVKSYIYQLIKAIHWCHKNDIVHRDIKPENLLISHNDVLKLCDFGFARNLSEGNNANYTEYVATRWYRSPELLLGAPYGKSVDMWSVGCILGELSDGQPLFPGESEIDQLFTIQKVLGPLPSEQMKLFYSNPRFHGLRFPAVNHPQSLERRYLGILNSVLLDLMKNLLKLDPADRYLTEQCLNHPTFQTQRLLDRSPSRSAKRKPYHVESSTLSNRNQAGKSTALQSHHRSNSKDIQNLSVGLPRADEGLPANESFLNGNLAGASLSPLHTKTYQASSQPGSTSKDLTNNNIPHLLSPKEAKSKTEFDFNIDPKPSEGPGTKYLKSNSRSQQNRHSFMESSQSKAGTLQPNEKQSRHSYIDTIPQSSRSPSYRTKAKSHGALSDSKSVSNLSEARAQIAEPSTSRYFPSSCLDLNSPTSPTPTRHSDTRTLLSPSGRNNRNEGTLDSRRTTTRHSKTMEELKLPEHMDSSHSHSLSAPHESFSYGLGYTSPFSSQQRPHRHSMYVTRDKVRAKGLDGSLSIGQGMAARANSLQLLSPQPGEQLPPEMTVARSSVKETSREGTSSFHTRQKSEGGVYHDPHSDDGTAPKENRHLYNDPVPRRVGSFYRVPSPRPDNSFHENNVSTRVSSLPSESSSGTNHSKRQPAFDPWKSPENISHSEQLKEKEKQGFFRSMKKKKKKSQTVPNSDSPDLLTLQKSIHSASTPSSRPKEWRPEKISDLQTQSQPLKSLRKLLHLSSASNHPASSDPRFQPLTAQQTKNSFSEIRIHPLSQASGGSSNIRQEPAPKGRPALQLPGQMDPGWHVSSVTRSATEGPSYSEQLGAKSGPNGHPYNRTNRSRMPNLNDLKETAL
In words: Selectivity interaction (KinomeScan (DiscoverX)) EUB0000607a CDKL5. The conditions noted are these: at 10 µM.

Experiment [2] has as its target Dual specificity protein kinase CLK3 (Homo sapiens, UniProt P49761). In words: Selectivity interaction (SelectScreen profiling (Invitrogen)) EUB0000607a CLK3. The conditions noted are these: at 2 µM.
For experiment [3], the system named is Mast/stem cell growth factor receptor Kit (Homo sapiens), P10721 [V559D,T670I]. Particulars: at 10 µM.
Mast/stem cell growth factor receptor Kit (Homo sapiens), P10721 [V559D,T670I], sequence (P10721 whole entry V559D/T670I): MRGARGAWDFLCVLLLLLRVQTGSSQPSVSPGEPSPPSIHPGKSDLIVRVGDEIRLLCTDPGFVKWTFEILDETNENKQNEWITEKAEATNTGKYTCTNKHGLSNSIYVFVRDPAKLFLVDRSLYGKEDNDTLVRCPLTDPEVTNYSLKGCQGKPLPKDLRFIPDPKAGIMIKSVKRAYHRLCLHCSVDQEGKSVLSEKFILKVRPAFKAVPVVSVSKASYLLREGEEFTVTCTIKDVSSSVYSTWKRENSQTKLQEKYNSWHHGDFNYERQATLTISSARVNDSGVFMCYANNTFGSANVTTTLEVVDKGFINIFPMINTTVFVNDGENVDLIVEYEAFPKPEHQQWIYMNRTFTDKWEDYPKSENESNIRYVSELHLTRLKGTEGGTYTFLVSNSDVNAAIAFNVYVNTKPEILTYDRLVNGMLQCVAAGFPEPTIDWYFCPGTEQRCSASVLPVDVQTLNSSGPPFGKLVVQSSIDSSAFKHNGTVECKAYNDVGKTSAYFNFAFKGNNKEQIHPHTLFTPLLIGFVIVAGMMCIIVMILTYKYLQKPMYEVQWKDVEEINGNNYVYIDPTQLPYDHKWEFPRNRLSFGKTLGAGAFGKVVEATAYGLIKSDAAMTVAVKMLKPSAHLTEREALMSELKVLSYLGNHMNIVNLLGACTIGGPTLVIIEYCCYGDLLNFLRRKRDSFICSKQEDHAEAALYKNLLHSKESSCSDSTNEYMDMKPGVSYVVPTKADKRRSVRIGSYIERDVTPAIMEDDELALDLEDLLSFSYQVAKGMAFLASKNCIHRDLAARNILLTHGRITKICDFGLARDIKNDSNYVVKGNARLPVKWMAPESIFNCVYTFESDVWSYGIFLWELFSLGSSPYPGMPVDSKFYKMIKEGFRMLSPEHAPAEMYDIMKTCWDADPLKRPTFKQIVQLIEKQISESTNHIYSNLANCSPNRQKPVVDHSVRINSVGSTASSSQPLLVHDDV
In experiment [4] the target is T2, Serine/threonine-protein kinase 3 (Homo sapiens) (UniProt Q13188).
T2 sequence (whole entry): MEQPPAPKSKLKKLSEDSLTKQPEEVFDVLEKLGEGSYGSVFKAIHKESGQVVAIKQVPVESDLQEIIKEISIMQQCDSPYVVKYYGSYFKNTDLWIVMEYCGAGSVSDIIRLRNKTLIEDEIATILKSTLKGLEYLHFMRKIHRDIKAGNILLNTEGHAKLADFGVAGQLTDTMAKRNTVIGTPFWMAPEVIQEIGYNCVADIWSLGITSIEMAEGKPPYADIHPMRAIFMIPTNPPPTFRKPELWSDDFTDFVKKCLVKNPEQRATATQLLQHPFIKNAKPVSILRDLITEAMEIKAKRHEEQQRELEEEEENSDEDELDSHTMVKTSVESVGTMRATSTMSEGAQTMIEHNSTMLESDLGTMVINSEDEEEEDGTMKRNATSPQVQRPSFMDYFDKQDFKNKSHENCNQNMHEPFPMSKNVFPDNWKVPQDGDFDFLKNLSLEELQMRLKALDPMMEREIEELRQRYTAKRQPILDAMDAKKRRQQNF
In words: Selectivity interaction (KinomeScan (DiscoverX)) EUB0000229b STK3. Particulars: at 10 µM.

Experiment [5] deals with 5'-AMP-activated protein kinase catalytic subunit alpha-1 (Homo sapiens, UniProt Q13131). In words: Selectivity interaction (KinomeScan (DiscoverX)) EUB0001079a PRKAA1. Particulars: at 1 µM.
5'-AMP-activated protein kinase catalytic subunit alpha-1, sequence (Q13131 whole entry, looked up): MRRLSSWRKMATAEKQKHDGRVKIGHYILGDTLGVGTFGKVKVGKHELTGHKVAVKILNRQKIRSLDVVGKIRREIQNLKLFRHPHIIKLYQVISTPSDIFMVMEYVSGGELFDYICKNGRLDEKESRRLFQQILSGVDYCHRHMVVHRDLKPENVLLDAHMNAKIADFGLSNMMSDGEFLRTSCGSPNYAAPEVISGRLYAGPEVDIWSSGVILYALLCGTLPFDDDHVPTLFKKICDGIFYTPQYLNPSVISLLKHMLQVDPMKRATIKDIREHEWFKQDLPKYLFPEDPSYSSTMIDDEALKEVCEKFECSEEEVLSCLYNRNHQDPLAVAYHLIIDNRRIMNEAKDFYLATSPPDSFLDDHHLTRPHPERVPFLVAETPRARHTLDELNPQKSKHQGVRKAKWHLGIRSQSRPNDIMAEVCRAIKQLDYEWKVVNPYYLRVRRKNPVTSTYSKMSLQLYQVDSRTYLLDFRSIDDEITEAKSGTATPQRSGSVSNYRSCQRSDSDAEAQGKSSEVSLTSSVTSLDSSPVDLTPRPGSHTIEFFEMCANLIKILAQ
For experiment [6], the target named is Tyrosine-protein kinase HCK (Homo sapiens) (UniProt P08631). In words: Selectivity interaction (KinomeScan (DiscoverX)) EUB0001619a HCK. Particulars: at 1 µM.
Tyrosine-protein kinase HCK (Homo sapiens), sequence (P08631 2-526 limits assumed): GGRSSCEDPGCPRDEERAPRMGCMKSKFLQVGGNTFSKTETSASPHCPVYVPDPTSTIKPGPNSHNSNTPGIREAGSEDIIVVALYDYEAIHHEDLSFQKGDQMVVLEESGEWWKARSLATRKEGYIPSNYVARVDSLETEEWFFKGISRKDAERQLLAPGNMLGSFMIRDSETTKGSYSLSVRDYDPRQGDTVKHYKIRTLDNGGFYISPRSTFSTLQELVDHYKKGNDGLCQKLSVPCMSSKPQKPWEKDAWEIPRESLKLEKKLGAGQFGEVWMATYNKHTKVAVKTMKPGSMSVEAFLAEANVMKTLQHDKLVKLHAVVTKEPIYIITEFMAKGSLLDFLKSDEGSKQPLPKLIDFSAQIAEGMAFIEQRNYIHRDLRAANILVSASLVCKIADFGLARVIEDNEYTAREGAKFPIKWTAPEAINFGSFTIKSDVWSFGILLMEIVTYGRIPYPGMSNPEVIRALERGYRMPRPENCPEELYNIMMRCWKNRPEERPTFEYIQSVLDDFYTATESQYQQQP
The target of experiment [7] is T3, Serine/threonine-protein kinase D1 (Homo sapiens) (UniProt Q15139).
T3 sequence (whole entry): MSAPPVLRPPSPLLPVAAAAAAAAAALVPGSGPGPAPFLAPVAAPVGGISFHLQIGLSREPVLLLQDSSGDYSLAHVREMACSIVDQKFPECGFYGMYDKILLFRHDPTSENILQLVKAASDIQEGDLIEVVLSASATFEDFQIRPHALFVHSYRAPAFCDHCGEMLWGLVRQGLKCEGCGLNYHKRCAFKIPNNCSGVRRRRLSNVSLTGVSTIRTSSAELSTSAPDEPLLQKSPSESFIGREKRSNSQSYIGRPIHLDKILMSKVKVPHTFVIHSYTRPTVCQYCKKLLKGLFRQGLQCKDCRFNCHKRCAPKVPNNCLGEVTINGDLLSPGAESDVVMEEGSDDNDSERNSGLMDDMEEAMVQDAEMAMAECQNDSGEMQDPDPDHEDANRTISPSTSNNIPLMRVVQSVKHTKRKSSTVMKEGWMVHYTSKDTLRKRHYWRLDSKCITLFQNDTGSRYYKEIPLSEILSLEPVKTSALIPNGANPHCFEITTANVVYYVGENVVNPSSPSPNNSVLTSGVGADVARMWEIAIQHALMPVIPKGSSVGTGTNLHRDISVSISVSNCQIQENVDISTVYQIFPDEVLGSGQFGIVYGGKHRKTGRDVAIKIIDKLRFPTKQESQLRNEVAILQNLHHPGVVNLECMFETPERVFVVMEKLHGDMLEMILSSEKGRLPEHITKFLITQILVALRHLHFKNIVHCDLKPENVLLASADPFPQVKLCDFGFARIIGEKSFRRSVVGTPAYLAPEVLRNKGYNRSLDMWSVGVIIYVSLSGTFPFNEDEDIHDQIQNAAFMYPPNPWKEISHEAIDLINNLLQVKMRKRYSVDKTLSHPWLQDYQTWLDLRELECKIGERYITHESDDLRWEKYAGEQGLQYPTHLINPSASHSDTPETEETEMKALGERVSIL
In words: Selectivity interaction (ProQinase) EUB0000171b PRKD1.

In experiment [8] the target is Non-receptor tyrosine-protein kinase TYK2 (Homo sapiens, UniProt P29597). In words: Selectivity interaction (KinomeScan (DiscoverX)) EUB0000595a TYK2. Particulars: at 10 µM.
Non-receptor tyrosine-protein kinase TYK2, sequence (P29597 whole entry): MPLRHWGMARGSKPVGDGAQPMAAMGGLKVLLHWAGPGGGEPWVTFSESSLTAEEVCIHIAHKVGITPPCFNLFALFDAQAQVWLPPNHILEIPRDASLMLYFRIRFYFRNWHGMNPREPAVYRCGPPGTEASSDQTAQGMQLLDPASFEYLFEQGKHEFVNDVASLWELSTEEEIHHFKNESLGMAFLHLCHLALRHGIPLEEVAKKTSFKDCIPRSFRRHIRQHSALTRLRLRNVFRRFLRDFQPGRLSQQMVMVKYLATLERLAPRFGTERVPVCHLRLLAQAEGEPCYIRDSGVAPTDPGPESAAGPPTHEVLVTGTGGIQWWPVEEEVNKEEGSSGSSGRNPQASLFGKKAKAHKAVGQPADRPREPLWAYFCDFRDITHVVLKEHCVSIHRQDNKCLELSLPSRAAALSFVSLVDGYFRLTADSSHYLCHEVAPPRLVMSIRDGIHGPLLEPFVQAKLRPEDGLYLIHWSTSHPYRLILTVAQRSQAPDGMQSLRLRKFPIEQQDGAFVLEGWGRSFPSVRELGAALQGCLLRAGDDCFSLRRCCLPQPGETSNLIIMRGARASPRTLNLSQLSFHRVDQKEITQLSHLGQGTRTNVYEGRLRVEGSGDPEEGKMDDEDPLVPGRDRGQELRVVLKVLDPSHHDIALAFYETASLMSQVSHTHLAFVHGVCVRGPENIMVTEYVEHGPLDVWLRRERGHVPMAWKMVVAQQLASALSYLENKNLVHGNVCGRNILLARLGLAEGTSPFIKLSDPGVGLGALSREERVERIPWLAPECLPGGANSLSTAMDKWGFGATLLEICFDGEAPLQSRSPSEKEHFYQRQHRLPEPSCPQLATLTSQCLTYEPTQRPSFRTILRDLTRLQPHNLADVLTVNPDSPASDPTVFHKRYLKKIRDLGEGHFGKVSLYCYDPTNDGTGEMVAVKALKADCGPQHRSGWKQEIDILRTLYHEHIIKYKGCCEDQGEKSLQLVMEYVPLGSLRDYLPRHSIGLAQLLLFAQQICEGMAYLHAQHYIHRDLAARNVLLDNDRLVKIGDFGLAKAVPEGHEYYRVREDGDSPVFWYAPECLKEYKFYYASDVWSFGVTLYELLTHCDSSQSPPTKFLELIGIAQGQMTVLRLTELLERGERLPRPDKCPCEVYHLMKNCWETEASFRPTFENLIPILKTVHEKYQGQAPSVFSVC

Dual specificity protein kinase CLK3, sequence (P49761 whole entry, looked up): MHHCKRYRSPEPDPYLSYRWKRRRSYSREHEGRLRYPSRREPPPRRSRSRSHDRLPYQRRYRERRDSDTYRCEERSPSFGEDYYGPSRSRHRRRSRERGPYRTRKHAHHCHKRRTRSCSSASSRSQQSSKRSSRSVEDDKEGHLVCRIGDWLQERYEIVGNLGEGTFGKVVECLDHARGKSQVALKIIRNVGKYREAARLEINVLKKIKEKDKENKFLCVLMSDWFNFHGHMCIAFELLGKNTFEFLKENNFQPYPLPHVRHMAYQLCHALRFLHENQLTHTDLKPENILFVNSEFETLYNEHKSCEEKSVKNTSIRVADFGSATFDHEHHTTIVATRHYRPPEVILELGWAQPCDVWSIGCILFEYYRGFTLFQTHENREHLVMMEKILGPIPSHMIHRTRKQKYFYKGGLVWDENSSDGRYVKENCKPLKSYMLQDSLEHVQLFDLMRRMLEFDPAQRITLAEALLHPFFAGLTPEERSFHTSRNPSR

With `CNC(=O)Nc1ccc(-c2nc(N3CC4CCC(C3)O4)c3cnn(C4CCC5(CC4)OCCO5)c3n2)cc1`, the % of control in experiment [1] amounted to 79%. In experiment [2], this molecule gave a % of inhibition of 2%.
In experiment [3], `Cc1cc([C@@H](C)Nc2ccccc2C(=O)O)c2nc(N3CCOCC3)cc(=O)n2c1` [AZD-6482] showed a % of control of 91%.
In experiment [4], `COc1cc(N(C)c2ccnc3ccc(C(F)(F)F)cc23)cc(OC)c1OC` displayed a % binding of 93%.
On to `Nc1cnc(N2CCc3cc(S(=O)(=O)Nc4c(F)cc(Cl)cc4F)cc(N4CCCC4=O)c32)nc1` [TP-020n], for which, in experiment [5], the % of control came to 100%.
In experiment [6], `N#Cc1cccc(-c2c[nH]c3ncnc(N4CCOCC4)c23)c1` came in with a % of control of 100%.
Turning to `C=CC(=O)Nc1cccc(C(=O)Nc2ccc(Nc3cc(-c4[nH]c(SC)nc4C)ccn3)cc2)c1`, the % of control was determined as 68% in experiment [7] (at 1 µM) and 31% in experiment [7] (at 5 µM).
Turning to `COCC(=O)NC/C=C/c1ccc2ncnc(Nc3ccc(Oc4ccc(C)nc4)c(C)c3)c2c1` [CP-724714], the % of control in experiment [8] was 24%.
